Reference: patent US9732044B2, “N-(pyrid-4-yl)amides and N-(pyrimidin-4-yl)amides and their pharmaceutical and cosmetic use” (GALDERMA RESEARCH & DEVELOPMENT, priority 2011, dated 2017)

Key:
androgen receptor (AR) = androgen receptor (AR) (Homo sapiens (Human), UniProt P10275); assay: Androgen receptor transactivation test in PALM cell line (cross curves against methyl trienolone); type: cell-based; details: threshold lists, PALM cells, read-out: Kdapp
Procedure: This AR inhibiting activity was measured in a transactivation test by the dissociation constants KdR (rest), KdA (active), and Kdapp (apparent).
A compound may be said to be an AR inhibitor if it has a dissociation constant, Kdapp, of less than or equal to 1 μM, and a KdR/KdA ratio of less than or equal to 10 in a transactivation test.
The transactivation test is carried out in the cell line PALM (PC3 androgen receptor Luciferase MMTV), which is a stable transfectant containing the plasmids PMMTV-neo-Luc (reporter gene) and pSG5puro-AR.
In this study, the affinity of each test compound for the 2 states of the receptor (KdR and KdA) is determined together with the apparent Kd (KdApp). This constant depends upon the 2 Kd's (KdR and KdA), but also depends on the initial equilibrium of the receptor between the active state and rest state (L0) and on its expression rate. It is determined by the following formula: 1/KdApp=(L0/(1+L0))×(1/KdR)+(1/(1+L0))×(1/KdA)
In order to determine these constants, “cross curves” of the test compound against a reference agonist, methyl trienolone, are carried out on a 96-well plate. The test compound is used in 10 concentrations and the reference agonist in 7 concentrations.

[1] = test system: sebaceous gland of the ear of a Syrian hamster; assay: In vivo animal model with reduction in the size of the sebaceous glands (Syrian hamster ear); details: 1 g %/mL solution, topical on ear, daily for 24 days, compared to control (absolute ethanol)
Description: The model of the sebaceous gland of the ear of a Syrian hamster described by Plewig and Luderschmidt in J. Inv. Derm., (1977), pp. 171-176 is a classical tool for the in vivo study of the function of the sebaceous gland. In fact, the inner faces of the ear lobes of the hamster contain a high number of sebaceous glands described as being similar to those of human sebaceous follicles in terms of certain characteristics, including their morphology and response to androgens and anti-androgens. In fact the growth and lipogenesis of the sebaceous glands on the inner face of the ear of Syrian hamsters depend on the androgens. The anti-androgenic activity of test compounds can be easily evaluated by measuring the size of the sebaceous glands. Moreover, this model has been selected to evaluate the efficacy of the antagonists of the receptor to the androgens on the sebaceous gland.
Test compounds were evaluated according to the following protocol: male hamsters aged weeks were treated daily for 24 days on the inner face of the right ear with 30 μL of a solution of the test compound to be evaluated in absolute ethanol. For each test compound, groups were treated with solutions at a range of concentrations (e.g., from 0.01 g %/mL to 3 g %/mL), as well as absolute ethanol used as a control. (A concentration of 3 g %/mL means a concentration of 0.03 g/mL.)
At the end of the study, samples were taken from the treated ears. The skin of the inner face of the ear was separated from the cartilage. Under a binocular magnifying glass, two zones of 4 mm^2 were numbered. The size of the sebaceous glands was measured on the numerical images by manually trimming the glands by means of image analysis software (TINA.20). For each image some twenty glands were measured. The average area of the sebaceous glands was calculated for each treatment group.
A Student t-test for independent groups comparing each dose with vehicle was carried out to compare the average size of the sebaceous glands as a function of the doses applied. When the evolution of the effect is represented graphically as a function of the administered dose of test compound, the curve obtained is sigmoid in shape. In the median part, this sigmoid may be likened to a straight line. The dose corresponding to 50% of the maximum effect corresponds graphically to the point located in the centre of the linear section defined as “effective dose 50”. This DE50 characterises the potency of the test compound.

androgen receptor (AR), sequence (P10275 whole entry): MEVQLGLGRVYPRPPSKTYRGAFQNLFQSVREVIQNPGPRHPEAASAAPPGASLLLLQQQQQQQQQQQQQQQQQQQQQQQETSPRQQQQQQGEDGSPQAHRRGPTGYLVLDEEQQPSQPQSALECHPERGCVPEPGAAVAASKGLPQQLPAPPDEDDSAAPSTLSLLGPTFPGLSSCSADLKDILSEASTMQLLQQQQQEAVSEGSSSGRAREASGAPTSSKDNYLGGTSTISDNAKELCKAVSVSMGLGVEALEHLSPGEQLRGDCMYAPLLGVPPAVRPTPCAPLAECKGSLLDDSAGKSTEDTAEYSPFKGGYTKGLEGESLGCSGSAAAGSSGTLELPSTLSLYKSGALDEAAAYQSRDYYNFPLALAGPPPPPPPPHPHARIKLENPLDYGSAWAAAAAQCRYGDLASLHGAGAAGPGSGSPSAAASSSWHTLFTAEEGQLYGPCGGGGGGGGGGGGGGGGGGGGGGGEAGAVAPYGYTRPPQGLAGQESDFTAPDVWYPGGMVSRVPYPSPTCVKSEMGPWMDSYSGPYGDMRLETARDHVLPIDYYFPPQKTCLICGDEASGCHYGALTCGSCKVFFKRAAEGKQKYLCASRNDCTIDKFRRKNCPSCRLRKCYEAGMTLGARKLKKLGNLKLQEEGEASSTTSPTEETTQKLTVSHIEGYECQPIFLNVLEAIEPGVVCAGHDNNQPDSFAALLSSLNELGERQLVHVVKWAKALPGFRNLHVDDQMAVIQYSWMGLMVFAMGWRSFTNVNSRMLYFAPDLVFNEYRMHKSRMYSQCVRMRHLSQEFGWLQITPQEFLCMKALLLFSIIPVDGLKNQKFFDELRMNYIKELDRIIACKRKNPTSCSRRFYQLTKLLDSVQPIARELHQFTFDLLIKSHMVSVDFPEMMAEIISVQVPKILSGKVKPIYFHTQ

Row | SMILES | Kd (androgen receptor (AR)) | Reduction of sebaceous glands (following treatment at 1 g %/mL) [1]
1 | CCCCC(C)(O)C(=O)Nc1cc(Br)nc(OC)c1 (stereo not shown) [Compound 72B, 2-Hydroxy-2-methyl-hexanoic acid (2-bromo-6-methoxy-pyridin-4-yl)-amide] | ≤ 100 nM | 46%
2 | CCC(O)(C(=O)Nc1cc(Br)nc(OC)c1)C(C)C (stereo not shown) [Compound 74B, N-(2-Bromo-6-methoxy-pyridin-4-yl)-2-ethyl-2-hydroxy-3-methyl-butyramide] | ≤ 30 nM | 61%
3 | CCCC(C)(O)C(=O)Nc1cc(Br)nc(OC)c1 (stereo not shown) [Compound 78B, 2-Hydroxy-2-methyl-pentanoic acid (2-bromo-6-methoxy-pyridin-4-yl)-amide] | ≤ 100 nM | 50%

Now from value to molecule, other results behind:

Row | Kd (androgen receptor (AR)) | SMILES | Reduction of sebaceous glands (following treatment at 1 g %/mL) [1]
4 | ≤ 30 nM | COc1cc(NC(=O)C(C)(O)C(C)C)cc(Br)n1 (stereo not shown) [Compound 76A, N-(2-Bromo-6-methoxy-pyridin-4-yl)-2-hydroxy-2,3-dimethyl-butyramide] | 58%
5 | ≤ 30 nM | CCCC(O)(C(=O)Nc1cc(Br)nc(OC)c1)C(C)C (stereo not shown) [Compound 79A, 2-Hydroxy-2-isopropyl-pentanoic acid (2-bromo-6-methoxy-pyridin-4-yl)-amide] | 48%
